The source made the active and inactive calls. No cut-off for these calls is given here.

The target in test [1] is T1, Protein-S-isoprenylcysteine O-methyltransferase (Homo sapiens, UniProt O60725). Put plainly: Inhibition of Icmt up to 100 uM after 60 mins using [3H]biotin as substrate by artifact assay.
The target in test [2] is T1, Protein-S-isoprenylcysteine O-methyltransferase. The test is described as follows: Inhibition of Icmt using [3H]SAM as substrate.

T1 sequence (O60725 whole entry): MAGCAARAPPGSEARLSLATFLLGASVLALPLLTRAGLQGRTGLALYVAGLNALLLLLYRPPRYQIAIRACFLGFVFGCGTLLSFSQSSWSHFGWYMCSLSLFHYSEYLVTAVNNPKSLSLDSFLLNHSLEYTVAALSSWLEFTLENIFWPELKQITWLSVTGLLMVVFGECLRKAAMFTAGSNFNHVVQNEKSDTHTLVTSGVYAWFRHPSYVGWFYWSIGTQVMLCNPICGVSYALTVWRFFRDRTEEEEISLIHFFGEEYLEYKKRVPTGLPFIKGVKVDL

As for `COc1ccc(/C=C/C(=O)NCCc2cc(Br)c(OCCCN)c(Br)c2)cc1Br` [APLYSAMINE 6], the result in test [1] was inactive. Besides, inhibition in test [2] was half-maximal at 14 µM (IC50).

Source of the values: ChEMBL document CHEMBL1157380, “Aplysamine 6, an alkaloidal inhibitor of Isoprenylcysteine carboxyl methyltransferase from the sponge Pseudoceratina sp” (J Nat Prod, 2008).
